“Also recorded” adds a separate entry of the source.
Key:
Type in all cases: biochemical
[1] = test system: AAPH induced linoleic acid peroxidation; experiment: Inhibition of linoleic acid lipid peroxidation, AAPH assay; details: slope of inhibition time (Tinh) vs. concentration of antioxidant
Method: The inhibition of linoleic acid lipid peroxidation was studied according to [Liegeois et al. (2000)] and [Rajic et al. (2010)]. Briefly, 10 μL of a 16 mM linoleic acid dispersion and 10 μL of the test compound (8-1 μM final concentration) were added to the UV cuvette containing 0.93 mL of 0.05 M phosphate buffer, pH 7.4. The oxidation reaction was initiated under air by the addition of 50 μL (40 mM) of AAPH solution. The rate of oxidation at 37°C was monitored by recording the increase of absorption at 234 nm caused by conjugated diene hydroperoxides. The results were compared to the standard inhibitor (Trolox). The AOP is defined as the slope of the curve representing the inhibition time of oxidation (Tinh) vs. the concentration of antioxidant and is expressed in min/μM.

[2] = target: T1, α-glucosidase from Saccharomyces cerevisiae (Saccharomyces cerevisiae, UniProt P53341); experiment: α-glucosidase inhibition assay; design: inhibition: dose or concentration left out as unconfirmed; details: for inhibition: read-out: α-glucosidase % inhibition; for α-glucosidase % inhibition: at the highest test concentration of 2 mM
T1 construct: purchased Sigma-Aldrich
Method: The α-glucosidase assay was carried out according as reported before ([Amin et al., 2016]). The test protocol is attached as Supplementary Material ([Amin et al., 2016]).
81 Inhibition of α-glucosidase.
82 α-Glucosidase inhibitory activity was assayed according to method adopted by Choudhary et al.
83 (2010) with some modifications. Briefly, 50 µL of a solution of α-glucosidase from
84 Saccharomyces cerevisiae (0.2 U/mL in 0.1 M phosphate buffer at pH 6.8, Sigma-Aldrich, St.
85 Louis, MO, USA) was incubated with 20 μL of test compounds or extracts at different
86 concentrations (ranging from 6 mM – 0.372 mM in 25% DMSO for isolated constituents or
87 from 5 mg to 0.039 mg/mL for extracts) at 37 °C for 10 min. Then 50 μl of the substrate,
88 p-nitrophenyl-α-D-glucopyranoside (0.7 mM stock, final concentration 0.29 mM) was added to
89 the reaction mixture and incubated again for 30 min at 37 °C. […]
91 from 834 µg to 6.5 µg/mL for extracts. The reaction was stopped by adding Na2CO3 (100 μl,
92 200 mM stock) solution and the absorbance was measured at 400 nm. Final DMSO
93 concentration remained below 7.5% during the assay.
94 concentration) was used as reference compound.
96 The % inhibition was calculated using the following formula:
98 % Inhibition = 100 – [OD (test sample) / OD (control)] × 100
100 Alpha-glucosidase inhibition was categorized as mild (1-25%), moderate (26-50%), high

[3] = test system: formation of AGEs (BSA-MGO); experiment: BSA-MGO antiglycation assay; details: for IC50: read-out: Protein glycation BSA-MGO IC50; for Protein glycation BSA-MGO % inhibition: isolated constituents, highest test concentration
Method: The BSA-glucose and BSA-MGO antiglycation assays were performed as reported before ([Amin et al., 2016]). The test protocol is attached as Supplementary Material ([Amin et al., 2016]).
60 Protein-glyoxal interaction (BSA-MGO assay)
61 The antiglycation assay using methylgloxyl (MGO) was performed according to the method
62 developed by Peng et al. (2007) with slight modifications. Briefly, methylglyoxal (135 μL, 5.75
63 mM) was incubated with BSA (135 μL, 10 mg/mL) dissolved in phosphate buffer (50 mM, pH
64 7.4, containing sodium azide (0.02%), added to prevent bacterial growth) and test compounds
65 (30 μL) at different final concentrations (1.5 – 0.023 mM) in 100% DMSO. The reaction
66 mixture was incubated at 37 °C for one week. Control solutions only contained methylglyoxal
67 (135 μL, 5.75 mM) BSA (135 μL, 1 0mg/mL) and DMSO (100%) only. The blank samples of
68 similar composition were also prepared simultaneously and kept at 4 °C for one week. The
70 440) due to formation of AGEs was monitored by spectrofluorometry (Tecan® Infinite M200,
71 Giessen, The Netherlands). Aminoguanidine (3-0.046 mM final concentration) was used as
72 reference compound. The AGEs inhibition was calculated as
74 % AGEs inhibition = [1–(S–Sb)/(C–Cb)] x 100
76 where S and C were fluorescence of test samples (in DMSO) and control (test mixtures
77 containing only DMSO) incubated at 37 °C, and where Sb and Cb were fluorescence for
78 samples incubated at 4 °C.
79 using Sigma plot® 13.0.

T1 sequence (P53341 whole entry): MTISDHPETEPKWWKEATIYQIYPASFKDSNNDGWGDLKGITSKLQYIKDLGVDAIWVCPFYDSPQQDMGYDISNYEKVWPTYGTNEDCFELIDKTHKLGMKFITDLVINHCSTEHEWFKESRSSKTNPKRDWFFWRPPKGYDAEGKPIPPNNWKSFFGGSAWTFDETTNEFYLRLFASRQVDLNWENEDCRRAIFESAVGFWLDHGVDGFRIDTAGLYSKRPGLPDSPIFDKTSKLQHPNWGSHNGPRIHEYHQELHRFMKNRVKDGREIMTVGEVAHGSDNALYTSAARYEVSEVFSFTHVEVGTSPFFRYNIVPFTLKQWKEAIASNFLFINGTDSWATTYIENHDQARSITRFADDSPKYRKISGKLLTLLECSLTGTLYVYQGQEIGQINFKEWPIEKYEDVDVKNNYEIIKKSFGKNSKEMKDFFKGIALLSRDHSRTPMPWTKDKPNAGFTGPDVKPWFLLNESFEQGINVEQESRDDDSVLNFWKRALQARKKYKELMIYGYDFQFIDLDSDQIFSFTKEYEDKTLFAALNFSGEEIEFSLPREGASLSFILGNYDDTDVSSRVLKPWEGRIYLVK

COc1ccc(-c2cc(=O)c3c(O)c(OC)c(O)cc3o2)cc1 [Compound 5, Pectolinarigenin]
AAPH assay AOP (antioxidant power) [1]: 0.2 min/µM
IC50 [2]: 230 µM
IC50 [3]: 190 µM

COc1ccc(-c2cc(=O)c3c(O)c(OC)c(O[C@@H]4O[C@H](CO[C@@H]5O[C@@H](C)[C@H](O)[C@@H](O)[C@H]5O)[C@@H](O)[C@H](O)[C@H]4O)cc3o2)cc1 [Compound 6, Pectolinarin]
AAPH assay AOP (antioxidant power) [1]: 0.3 min/µM
inhibition [2]: 48%
IC50 [3]: 130 µM

COC(=O)c1ccc(O)cc1 [Compound 7, 4-Hydroxy benzoic acid methyl ester]
AAPH assay AOP (antioxidant power) [1]: did not present any activity; also recorded: Not active
inhibition [2]: 47%
Protein glycation BSA-MGO % inhibition [3]: did not present any inhibition; also recorded: no activity

CC1(O)CCC2C(C(=O)O)=COC(OC3OC(CO)C(O)C(O)C3O)C21 (stereo not shown) [Compound 2, Mussaenosidic acid]
AAPH assay AOP (antioxidant power) [1]: 0.2 min/µM
inhibition [2]: 15%
Protein glycation BSA-MGO % inhibition [3]: 23%

COC(=O)C1=COC(OC2OC(CO)C(O)C(O)C2O)C2C1CCC2(C)O (stereo not shown) [Compound 3, Mussaenoside]
AAPH assay AOP (antioxidant power) [1]: 0.1 min/µM
inhibition [2]: 9%
Protein glycation BSA-MGO % inhibition [3]: 24%

CO[C@H]1C[C@@]2(O)[C@H](O)[C@@H](O)[C@](C)(OC)[C@H]2[C@@H](OC)O1 [Compound 1, Kickxiasine]
AAPH assay AOP (antioxidant power) [1]: 0.3 min/µM
α-glucosidase % inhibition [2]: no activity
α-glucosidase % inhibition ([2]; listed as compound 1): did not present any activity
Protein glycation BSA-MGO % inhibition [3]: 31%

Source: publication PMC5410595, “In Vitro and In Silico Antidiabetic and Antimicrobial Evaluation of Constituents from Kickxia ramosissima (Nanorrhinum ramosissimum)” (Frontiers in Pharmacology, 2017)
